Laboratory results published in publication PMC2375326, “In vitro evaluation of amino acid prodrugs of novel antitumour 2-(4-amino-3-methylphenyl)benzothiazoles” (British Journal of Cancer, 2002).

Tests used:
[1] = system: NCI-H522; assay: NCI in vitro cytotoxicity assay (SRB), NCI-H522; assay type: cell-based; conditions: Homo sapiens, 48 h exposure, sulforhodamine B assay, mean graph, read-out: Log10 GI50 (NCI-H522) (converted)
Protocol: (§1) Cell culture and drug application procedures have been described previously ([Boyd and Paull, 1995]). Briefly, cell lines were inoculated into a series of 96-well microtiter plates, with varied seeding densities depending on growth characteristics of each cell line. Following a 24 h drug free incubation, test agents were added at five 10-fold dilutions with a maximum concentration of 100 μM. Cellular protein levels were determined after 48 h drug exposure by sulphorhodamine B colorimetry.

[2] = set-up: method as in Bradshaw et al, 2002; conditions: in vivo, compound 2 regenerated from lysylamide prodrug compound 2b; ref Bradshaw et al, 2002; cited from earlier work
[3] = system: RPMI-8226; assay: NCI in vitro cytotoxicity assay (SRB), RPMI-8226; assay type: cell-based; conditions: Homo sapiens, 48 h exposure, sulforhodamine B assay, mean graph, read-out: Log10 GI50 (RPMI-8226) (converted)
Protocol: as §1

[4] = system: CYP1A1 protein expression in IGROV-1 cells; assay: Western blot of CYP1A1 protein, IGROV-1 lysates; assay type: cell-based, human; conditions: 10 nM to 10 μM, 24 h, result not shown
Protocol: Whole cell lysates were prepared for examination of CYP1A1 protein expression from untreated MCF-7, IGROV-1 and HCT 116 cultures and following exposure of cells to compounds 1, 2, 2a, 2b, 3, 3a, 3b, 4, 4a and 4b. Following protein determination (n=3, [Bradford, 1976]) and addition of sample buffer, samples were boiled at 95°C for 5 min and solubilised proteins (50 μg) were separated by sodium dodecyl sulphate (SDS) polyacrylamide gel (10%) electrophoresis. Proteins were electroblotted to polyvinylidene difluoride (PVDF) membranes and probed for CYP1A1 protein with polyclonal antiserum specific for human CYP1A1/1A2 (Gentest Corporation). Secondary antibody was conjugated to alkaline phosphatase, and CYP1A1 was detected following brief (<10 min) incubation with bromochloroindolyl phosphate and nitro-blue tetrazolium in alkaline phosphatase buffer. Molecular weight markers and a positive control of recombinant CYP1A1 (Gentest Corporation), included in all blots, confirmed detection of 52 kDa CYP1A1 protein.

CYP1A1 protein expression (Western blot) [4] | Compound | GI50 [1] | Persistence of plasma concentrations sufficient for cytocidal activity against human mammary carcinoma cells [2] | GI50 [3]
– | Cc1cc(-c2nc3cc(F)ccc3s2)ccc1N [Compound 2, 2-(4-Amino-3-methylphenyl)-5-fluorobenzothiazole] | 28.8 µM | > 6 h | –
clearly observed | Cc1cc(-c2nc3cc(F)ccc3s2)ccc1NC(=O)[C@@H](N)CCCCN [Compound 2b] | – | – | 2.45 µM
